Measured values as given in patent US8399497B2, “Thiazole derivatives and use thereof” (Merck Serono SA, priority 2005, dated 2013).
Read-outs that look alike come from different tables or passages of the source.

Key:
[1] = target: Human recombinant GST-PI3Kγ (Homo sapiens, UniProt P48736); assay: High throughput PI3K lipid kinase assay (SPA, neomycin-coated beads); type: biochemical
Excerpt: a) High Throughput PI3K Lipid Kinase Assay (Binding Assay):
The efficacy of compounds of the invention in inhibiting the PI3K induced-lipid phosphorylation may be tested in the following binding assay.
The assay combines the scintillation proximity assay technology (SPA, Amersham) with the capacity of neomycin (a polycationic antibiotic) to bind phospholipids with high affinity and specificity. The Scintillation Proximity Assay is based on the properties of weakly emitting isotopes (such as ^3H, ^125I, ^33P). Coating SPA beads with neomycin allows the detection of phosphorylated lipid substrates after incubation with recombinant PI3K and radioactive ATP in the same well, by capturing the radioactive phospholipids to the SPA beads through their specific binding to neomycin.
To a 384 wells MTP containing 5 μl of the test compound of Formula (I) (solubilized in 6% DMSO; to yield a concentration of 100, 30, 10, 3, 1, 0.3, 0.1, 0.03, 0.01, 01 μM of the test compound), the following assay components are added. 1) 5 μl (58 ng) of Human recombinant GST-PI3Kγ (in Hepes 40 mM, pH 7.4, DTT 1 mM and ethylenglycol 5%) 2) 10 μl of lipid micelles and 3) 10 μl of Kinase buffer ([^33P]γ-ATP 45 μM/60 nCi, MgCl2 30 mM, DTT 1 mM, β-Glycerophosphate 1 mM, Na3VO4 100 μM, Na Cholate 0.3%, in Hepes 40 mM, pH 7.4). After incubation at room temperature for 180 minutes, with gentle agitation, the reaction is stopped by addition of 60 μl of a solution containing 100 μg of neomycin-coated PVT SPA beads in PBS containing ATP 10 mM and EDTA 5 mM. The assay is further incubated at room temperature for 60 minutes with gentle agitation to allow binding of phospholipids to neomycin-SPA beads. After precipitation of the neomycin-coated PVT SPA beads for 5 minutes at 1500×g, radioactive PtdIns(3)P is quantified by scintillation counting in a Wallac MicroBeta™ plate counter.
The values indicated in Table II below refer to the IC50 (μM) with respect to PI3Kγ, i.e. the amount necessary to achieve 50% inhibition of said target. Said values show a considerable inhibitory potency of thiazole compounds with regard to PI3Kγ.

[2] = system: Macrophage recruitment; assay: Thioglycollate-induced peritoneal cavity cell recruitment model, macrophages; type: in vivo, C3H mice; settings: 10 mg/kg orally, lavage 48 h after thioglycollate
Protocol: (§1) Thioglycollate-Induced Pertioneal Cavity Cell Recruitment Model
(§2) The in vivo efficacy of compounds of the invention in inhibiting the migration of leukocytes upon intraperitoneal challenge of thioglycollate may be tested with the following assay.
(§3) 8-10 weeks old female C3H mice are fasted during 18 hours. 15 minutes prior the intraperitoneal injection of thioglycollate (1.5%, 40 ml/kg), the mice are treated orally with Thiazoles of Formula (I). Control mice receive CMC/Tween as vehicle (10 ml/kg). The mice are then sacrificed by CO2 inhalation and the peritoneal cavity is washed two times with 5 ml of ice-cold PBS/1 mM EDTA. The lavages are done 4 hours or 48 hours after thioglycollate challenge to evaluate neutrophils or macrophages recruitment, respectively. The white blood cells (neutrophils, lymphocytes or macrophages) are counted using a Beckman Coulter® A ^cT 5diff™. Dexamethasone is used as reference drug.

[3] = system: PI3K induced Akt/PKB phosphorylation in Raw 264-7 macrophages; assay: Cell based ELISA of Akt/PKB phosphorylation in macrophages after Complement 5a stimulation; settings: Mus musculus, RAW264.7, 5 min, 50 nM Complement 5a for 5 minutes, read-out: Cell Assay (P-Akt, Elisa) IC50
Protocol: b) Cell Based ELISA to Monitor PI3K Inhibition:
The efficacy of compounds of the invention in inhibiting the PI3K induced Akt/PKB phosphorylation may be tested in the following cell based assay.
Measurement of Akt/PKB phosphorylation in macrophages after stimulation with Complement 5a: Raw 264: Raw 264-7 macrophages (cultured in DMEM-F12 medium containing 10% Fetal Calf serum and antibiotics) are plated at 20,000 cells/well in a 96 MTP 24 h before cell stimulation. Prior to the stimulation with 50 nM of Complement 5a during 5 minutes, Cells are serum starved for 2 h, and pretreated with inhibitors for 20 minutes. After stimulation cells are fixed in 4% formaldehyde for 20 minutes and washed 3 times in PBS containing 1% Triton X-100 (PBS/Triton). Endogenous peroxidase is blocked by a 20 minutes incubation in 0.6% H2O2 and 0.1% Sodium Azide in PBS/Triton and washed 3 times in PBS/Triton. Cells are then blocked by 60 minutes incubation with 10% fetal calf serum in PBS/Triton. Next, phosphorylated Akt/PKB is detected by an overnight incubation at 4° C. with primary antibody (anti phospho Serine 473 Akt IHC, Cell Signaling) diluted 800-fold in PBS/Triton, containing 5% bovine serum albumin (BSA). After 3 washes in PBS/Triton, cells are incubated for 60 minutes with a peroxidase conjugated goat-anti-rabbit secondary antibody (1/400 dilution in PBS/Triton, containing 5% BSA), washed 3 times in PBS/Triton, and 2 times in PBS and further incubated in 100 μl of luminescent substrate reagent solution (Pierce) for 2 minutes, followed by the reading (1 s/well).
The values indicated in Table III below reflect the percentage of inhibition of AKT phoshorylation as compared to basal level. Said values show a clear effect of the thiazole compounds on the activation of AKT phosphorylation in macrophages.

[4] = system: Neutrophil recruitment; assay: Thioglycollate-induced peritoneal cavity cell recruitment model, neutrophils; type: in vivo, C3H mice; settings: 10 mg/kg orally, lavage 4 h after thioglycollate
Protocol: as §1, §2, §3

[5] = system: Collagen-induced arthritis; assay: Collagen-induced arthritis, CIA (mouse); type: in vivo, DBA/1 mice; settings: twice a day, 7 days

Human recombinant GST-PI3Kγ, sequence (P48736 whole entry): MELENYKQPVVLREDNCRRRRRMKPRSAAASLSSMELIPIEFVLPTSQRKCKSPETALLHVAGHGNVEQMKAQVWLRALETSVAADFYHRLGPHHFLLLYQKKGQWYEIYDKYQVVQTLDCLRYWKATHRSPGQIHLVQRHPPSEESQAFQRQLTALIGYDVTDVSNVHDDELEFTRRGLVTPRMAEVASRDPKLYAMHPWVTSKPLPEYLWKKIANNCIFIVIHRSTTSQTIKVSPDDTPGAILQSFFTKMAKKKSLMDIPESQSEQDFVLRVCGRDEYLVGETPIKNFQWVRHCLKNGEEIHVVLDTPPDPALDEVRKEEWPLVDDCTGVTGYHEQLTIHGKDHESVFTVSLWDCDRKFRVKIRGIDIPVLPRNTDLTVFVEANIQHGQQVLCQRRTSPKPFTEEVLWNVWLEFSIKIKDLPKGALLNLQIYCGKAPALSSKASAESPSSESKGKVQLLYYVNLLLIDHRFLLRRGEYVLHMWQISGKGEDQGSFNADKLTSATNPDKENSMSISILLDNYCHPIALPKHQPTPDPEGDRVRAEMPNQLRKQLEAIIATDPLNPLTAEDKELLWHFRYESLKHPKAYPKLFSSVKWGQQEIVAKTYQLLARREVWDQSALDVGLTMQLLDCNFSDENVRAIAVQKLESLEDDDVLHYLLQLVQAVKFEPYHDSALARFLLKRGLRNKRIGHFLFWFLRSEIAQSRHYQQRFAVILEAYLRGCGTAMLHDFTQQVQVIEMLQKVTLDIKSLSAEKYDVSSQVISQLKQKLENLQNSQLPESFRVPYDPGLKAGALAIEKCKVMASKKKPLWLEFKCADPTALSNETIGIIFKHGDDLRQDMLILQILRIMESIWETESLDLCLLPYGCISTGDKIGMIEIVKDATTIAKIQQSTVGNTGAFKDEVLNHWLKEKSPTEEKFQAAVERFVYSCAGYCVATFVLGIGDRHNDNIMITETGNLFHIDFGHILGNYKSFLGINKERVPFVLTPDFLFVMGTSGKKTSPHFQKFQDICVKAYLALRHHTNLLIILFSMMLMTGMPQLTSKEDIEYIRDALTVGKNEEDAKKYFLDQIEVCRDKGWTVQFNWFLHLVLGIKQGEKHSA

CC(=O)Nc1nc(C)c(-c2csc(S(=O)(=O)N3CCC(O)CC3)c2)s1 [Example 39, N-(5-{5-[(4-hydroxypiperidin-1-yl)sulfonyl]-3-thienyl}-4-methyl-1,3-thiazol-2-yl)acetamide]
IC50 [1]: 14 nM | % inhibition of Macrophage recruitment at 10 mg/kg after 48 h [2]: 43% | IC50 [3]: 50 nM | IC50 ([3]; re-testing): 320 nM | % inhibition of Neutrophil recruitment at 10 mg/kg after 4 h [4]: 48% | Reduction of total clinical score [%] ([5]; 10 mg/kg orally): 30% | Reduction of total clinical score [%] ([5]; 30 mg/kg orally): 50% | Reduction of total clinical score [%] ([5]; 60 mg/kg orally): 75%
